This is an account of results in PMC7615676, “Short-course combination treatment for experimental chronic Chagas disease” (Science translational medicine, 2023).

A word on the solubility: it is the concentration that dissolves in the medium under given conditions. Read a high solubility as much dissolved substance. Broadly, the Cmax is the highest concentration seen after dosing.

Structures are written as SMILES. In brackets after ≈: the same amount, converted by molar mass. Read-outs that look alike come from different tables or passages of the source.

Series [1] is described as follows: chromatographic LogD assay. The conditions noted are these: reversed phase HPLC column (Gemini NX C18), pH 7.4; read-out: Chrom logD pH 7.4. It counts as physicochemical. The method, then:
The chromatographic hydrophobicity index (CHI) values were measured using reversed phase HPLC column (50 mm × 2 mm, 3 μm Gemini NX C18, Phenomenex, U.K.) with fast acetonitrile gradient at starting mobile phase at pH 7.4. CHI values were derived directly from the gradient retention times by using a calibration line obtained for standard compounds. The CHI value approximates to the volume % organic concentration when the compound elutes. CHI was linearly transformed into ChromlogD by least-squares fitting of experimental CHI values to calculated log P (ClogP) values for over 20K research compounds using the following formula: ChromlogD = 0.0857CHI − 2.00. The average error of the assay is ±3 CHI units or ± 0.25 ChromlogD.

Series [2] can be described thus: kinetic aqueous solubility (CLND). It counts as physicochemical. Conditions: phosphate buffered saline, aqueous buffer, kinetic from dmso stock, pH 7.4. The procedure: The eluent is quantified by suitably calibrated flow injection CLND. This assay has a dynamic range between the lower detection limit of 1 and 500 μM, governed by the protocol’s 1:20 dilution into pH 7.4 phosphate buffer solution from nominal 10 mM DMSO stock.

The nature of series [3]: intrinsic clearance in mouse liver microsomes. It counts as in vitro ADME. The procedure:
Immediately at time zero and at several serial times points up to 30 min, an aliquot of the incubation mixture was removed and mixed with acetonitrile to stop the reaction. Internal standard was added to all samples, the samples centrifuged to sediment precipitated protein and the plates then sealed prior to HPLC-MS/MS analysis. Metabolic stability expressed as a percentage of the parent molecule was calculated using the peak area ratio (compound peak area/internal standard peak area) of different compounds remaining after each incubation time compared to time zero of the incubation. The half-life (t1/2) was calculated using the following equation: t1/2=−ln(2)/k, where k is the turn-over rate constant of the ln (percent remaining) vs time regression.
CLint was calculated from the half-life (t1/2) using the following equations:
CLint (ml/min/g liver) = (0.693/(t1/2) x (ml of incubation/mg microsomal protein) x (mg microsomal protein/g liver).
On the technique in general: Microsomes from liver hold many membrane-bound enzymes, among them those of drug oxidation.

Series [4] is described as follows: plasma protein binding, equilibrium dialysis. It counts as in vitro ADME. Conditions: pH 7.4, mouse plasma, read-out: Mouse PPB % (converted). The method, then:
In vitro plasma protein binding was measured in mouse and human plasma using equilibrium dialysis at a nominal concentration of 2 μM. The RED inserts were placed in the 48 wells of the Teflon Plate (Pierce). Samples were prepared by mixing the test compound with plasma at the appropriate concentrations to yield a final drug concentration of 2 μM. Triplicate aliquots of plasma containing compounds at a concentration of 2 μM were pipetted to plasma side (red) of the insert, and PBS (phosphate buffered saline) pH 7.4 was placed into the receiver side (white) of the insert. The plate was covered with the sealing tape and incubated in a 37 °C orbital shaker water bath at approximately 150 rpm for 4 h. Following incubation, samples were prepared in a mixed matrix configuration. Aliquots of samples were pipetted into 96-well plates, and precipitation buffer was added to protein precipitate the samples. Samples were vortexed to mix, then centrifuged for 15 min at 3700 rpm and 4 °C. The supernatant was assayed directly by LC−MS/MS. The following equation was used to calculate the percentage bound drug fraction using this equilibrium dialysis method
% unbound = (buffer chamber]/[plasma chamber) x100

The subject of series [5] is chronic T. cruzi infection (CL Brener) in BALB/c mice. As to the kind of experiment: bioluminescent mouse model of chronic Chagas disease. Conditions: for No. cured/ no. tested: 50 mg/kg bid oral. It counts as in vivo, Trypanosoma cruzi. The procedure:
Compound 2 was evaluated in a bioluminescent mouse model of Chagas disease designed to mimic chronic infections. This model successfully differentiates the clinically used drugs from the clinically invalidated CYP51 inhibitors ([21]). Key features of this model include immunosuppression of mice following cessation of treatment to allow detection of parasite relapses, and ex vivo bioluminescence imaging that allows tissue-specific visualization of parasites. Treatments are considered efficacious if there is no evidence of bioluminescence during in vivo (mouse) and ex vivo (organ/tissue) imaging following immunosuppression ([38]). Under these experimental conditions, compound 2 was able to prevent parasite relapse in 2 of the 6 mice treated orally twice daily for 10 days at 50 mg/kg (Table S1). Increasing the dose to 100 mg/kg or extending treatment duration to 21 days provided similar partial efficacy rates.
Experiments followed a similar protocol to that described in ([21]). All animals were female (BALB/cAnNCrlC mice, 6-8 weeks old, strain code: 028, supplier: Charles River (UK)). We have previously shown that there are no differences in the bioluminescence profiles between infected males and females ([77]). Animals were maintained under specific pathogen-free conditions in individually ventilated cages. They experienced a 12-hour light/dark cycle, with access to food and water ad libitum. Mice were randomly selected and distributed into cages on arrival day by a Named Animal Care and Welfare Officer (NACWO), at LSHTM biological service facility (BSF). For efficacy experiments animals were randomly selected from the cages and ear/tail tagged on the infection day, starting from number 1. The same mouse ID was kept until the experimental endpoint. Mice were infected by i.p injection with 1x10^3 trypomastigotes derived from SCID mouse blood ([67]). To confirm infection, mice were imaged around the peak of parasite load. […] Treatment initiated in the chronic stage of infection ranging between 90 and 127 days post-infection. Drugs were administered by oral gavage (~200 μl), and vehicle only (0.5% w/v hydroxypropylmethylcellulose with 0.4% v/v Tween 80 and 0.5% v/v benzyl alcohol) was administered to control mice. Total number of animals for each study arm is shown in the relevant figures. To detect residual infection, mice were immunosuppressed using cyclophosphamide (at 200 mg/kg) by ip injection every 4 days for a maximum of three doses. For in vivo imaging, mice were injected ip with 150 mg/kg D-luciferin in Dulbecco’s Ca^2+/Mg^2+-free PBS, then anaesthetized using 2.5% (v/v) isofluorane in oxygen. Images were obtained using an IVIS Lumina II system (Caliper Life Science) 10−20 min after D-luciferin administration. The detection threshold was established from uninfected mice. Organs/tissue samples were assessed by ex vivo imaging as described previously ([21]). The limit of detection in this system is less than 20 parasites ([29]).

Series [6] in a line: bioanalysis of blood samples from in vivo efficacy studies. Set-up: species or system BALB/c mice. Conditions: for AUC0-7h Day 1, unbound concentrations of compound 3 / AUC0-7h Day 5, unbound concentrations of compound 3 / Cmax Day 1, unbound concentrations of compound 3 / Cmax Day 5, unbound concentrations of compound 3: 50mg/kg bid, 5 days; for AUC(0-t) / Cmax: BALB/c, mouse, whole blood, po, 50 mg/kg, compound 3 50mg/kg bid. The method, then: Following the first daily dose on day 1 and last day of treatment, serial blood samples were taken by the tail vein from all treated mice pre-dose, then 30 minutes, 1, 2, 4, and 8 hours post-dose, mixed with two volumes of distilled water and analyzed for test compound. Quantification of compounds was performed by means of LC/MSMS and exposure parameters namely Cmax and AUClast were estimated using Phoenix 64 (Pharsight Certara).

[7] abbreviates: dosing group 3 + BNZ (30mg/kg qd).

Regarding `COc1cc(Cl)ccc1-c1c(C)[nH]c2nc(N)nc(C)c12` [Compound 3, 5-(4-Chloro-2-methoxyphenyl)-4,6-dimethyl-7H-pyrrolo[2,3-d]pyrimidin-2-amine], the chromatographic logD in series [1] came to 4.2. This compound gave a solubility at 1 h in series [2] of 103 µg/mL (≈ 340 µM). In series [3], this compound showed a Cl int mouse of 1.4 ml/min/g liver. Besides, the half-life at 0.5 μM in series [3] (male, CD-1, read-out: T 1/2 mouse) came to 48 min. The fraction unbound at 4 h, 2 μM in series [4] was 0.03. Moreover, the entries for the “No. cured/ no. tested” value in series [5] (10 days) and in series [5] (20 days (changed to 11 bid + 9 qd)) were 4/6 and 2/6, respectively. The “tolerability in infected mice” value in series [5] (50 mg/kg bid, 20-day regimen) is “tolerability issues”. Besides, the “AUC0-7h Day 1, unbound concentrations of compound 3” value in series [6] (setting [7]) came to 2234 ± 509 ng·h/mL; in series [6] (dosing group 3 alone) it was 3024 ± 619 ng·h/mL. Moreover, the “AUC0-7h Day 5, unbound concentrations of compound 3” value stood at 5525 ± 663 ng·h/mL in series [6] (setting [7]) and 6094 ± 870 ng·h/mL in series [6] (dosing group 3 alone). The “Cmax Day 1, unbound concentrations of compound 3” value in series [6] (setting [7]) is 412 ± 88 ng/mL; in series [6] (dosing group 3 alone), 530 ± 95 ng/mL. Besides, the “Cmax Day 5, unbound concentrations of compound 3” value is 977 ± 129 ng/mL in series [6] (setting [7]) and 1014 ± 185 ng/mL in series [6] (dosing group 3 alone). The AUC(0-t) came out at 1800 ± 243 ng·h/mL in series [6] (10-day study, read-out: AUC0-7h Day 1); 7790 ± 1560 ng·h/mL in series [6] (10-day study, read-out: AUC0-7h last day); 2740 ± 388 ng·h/mL in series [6] (20-day study, read-out: AUC0-7h Day 1); 4920 ± 479 ng·h/mL in series [6] (20-day study, read-out: AUC0-7h last day). Further, the Cmax in series [6] (10-day study, read-out: Cmax Day 1) is 325 ± 59 ng/mL; in series [6] (10-day study, read-out: Cmax last day), 1250 ± 259 ng/mL; in series [6] (20-day study, read-out: Cmax Day 1), 480 ± 69 ng/mL; in series [6] (20-day study, read-out: Cmax last day), 810 ± 75 ng/mL.
